Values after ≈ are worked out from the molar mass of the structure shown.
Experiments:
MRSA (B42876) = assay: Inhibition of bacterial growth (agar plate MIC), MRSA (B42876); assay type: cell-based, methicillin-resistant S.a.; conditions: Staphylococcus aureus, MRSA; agar plates, 37° C., 24 hours
Description: (§1) Antimicrobial efficacy may be determined by standard methods of microbial culture in growth medium or on plates of agar supplemented with appropriate growth media. For example, microbes, e.g., mycoplasmata or Gram-positive or Gram-negative bacteria, are grown in the presence of serial dilutions of compounds in an appropriate vehicle, and, after a suitable period of growth, the microbial density is measured by visual or instrumental means. The concentration of compound at which no growth occurs is the minimum inhibitory concentration (MIC) of the compound. Test compounds with an appropriate level of growth inhibition are good candidate therapeutics for further evaluation.
(§2) Each compound was assayed against a panel of Gram-positive Bacilli, Enterococci, and Staphylococci, and Gram-negative Escherichia coli, grown in appropriate plate media solidified with 1.3% agar-agar. […] One tenth mL of diluted bacteria containing 500-1000 colony-forming units (CFU) were plated and spread, and the plates were incubated at 37° C. for 24 hours. MIC (minimum inhibitory concentration) was equivalent to the lowest concentration at which growth, i.e. colony formation, was not observed.

in vitro = in vitro ADME; conditions: human, Caco-2
From the text: Table 2 summarizes the results of cell membrane permeability assays of representative compounds of the invention. The assay utilizes CaCo2 cell culture monolayers, described by Artursson and Kalsson, Biochem. Biophys. Res.

Enterococcus fecium = assay: Inhibition of bacterial growth (agar plate MIC), E. fecium; assay type: cell-based; conditions: Enterococcus; agar plates, 37° C., 24 hours
Description: as §1, §2

Enterococcus fecalis = assay: Inhibition of bacterial growth (agar plate MIC), E. fecalis; assay type: cell-based; conditions: Enterococcus; agar plates, 37° C., 24 hours
Description: as §1, §2

E.c. pol IIIE = E.c. pol IIIE (Escherichia coli, UniProt P10443); assay: biochemical
E.c. pol IIIE, sequence (P10443 whole entry): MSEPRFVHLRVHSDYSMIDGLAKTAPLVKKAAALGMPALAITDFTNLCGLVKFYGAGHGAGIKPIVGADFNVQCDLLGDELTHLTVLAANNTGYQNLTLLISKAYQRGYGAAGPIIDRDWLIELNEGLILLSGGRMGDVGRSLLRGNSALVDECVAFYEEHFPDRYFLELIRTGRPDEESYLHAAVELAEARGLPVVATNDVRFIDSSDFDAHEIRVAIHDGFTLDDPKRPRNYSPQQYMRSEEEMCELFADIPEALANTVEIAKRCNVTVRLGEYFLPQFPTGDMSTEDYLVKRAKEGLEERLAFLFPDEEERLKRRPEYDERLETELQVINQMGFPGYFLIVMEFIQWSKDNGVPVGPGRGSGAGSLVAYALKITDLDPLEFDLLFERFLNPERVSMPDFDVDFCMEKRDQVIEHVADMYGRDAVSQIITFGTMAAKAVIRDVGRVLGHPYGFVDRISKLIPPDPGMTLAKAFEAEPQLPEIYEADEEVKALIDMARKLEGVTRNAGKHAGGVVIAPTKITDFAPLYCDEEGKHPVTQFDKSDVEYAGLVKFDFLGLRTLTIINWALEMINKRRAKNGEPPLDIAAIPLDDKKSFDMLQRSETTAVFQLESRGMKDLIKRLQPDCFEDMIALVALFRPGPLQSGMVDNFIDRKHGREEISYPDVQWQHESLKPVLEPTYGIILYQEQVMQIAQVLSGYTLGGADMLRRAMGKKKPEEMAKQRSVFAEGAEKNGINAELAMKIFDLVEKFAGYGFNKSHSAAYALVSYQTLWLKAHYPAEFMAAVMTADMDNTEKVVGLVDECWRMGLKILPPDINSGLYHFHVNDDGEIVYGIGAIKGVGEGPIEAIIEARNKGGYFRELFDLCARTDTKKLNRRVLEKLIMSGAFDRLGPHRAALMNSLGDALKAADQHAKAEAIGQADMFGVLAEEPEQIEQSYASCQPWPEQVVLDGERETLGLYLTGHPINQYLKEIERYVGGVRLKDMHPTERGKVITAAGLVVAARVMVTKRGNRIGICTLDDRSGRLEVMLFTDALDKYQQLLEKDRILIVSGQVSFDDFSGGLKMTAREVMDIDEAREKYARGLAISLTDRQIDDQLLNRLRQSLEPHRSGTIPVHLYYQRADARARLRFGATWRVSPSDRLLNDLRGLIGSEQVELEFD
Description: (§3) The ability of a test compound to inhibit the activity of DNA pol IIIC or pol IIIE enzymes can be tested by using a DNA polymerase assay as described, for example, in Barnes and Brown, Nucl. […] This rapid screening method can use natural or recombinant DNA pol III enzymes in a standard DNA polymerase activity assay. By including a test compound in a side-by-side assay with a control, the effect of the test compound on polymerase activity can be assessed.
(§4) DNA pol III activity was assayed as described in Barnes et al., Nucl.
(§5) Purified pol IIIC or pol IIIE was added to a buffered solution containing Mg^2+, DTT, glycerol, nicked calf thymus DNA, saturating concentrations of dATP, dCTP, dTTP and [^3H]-dTTP. Reaction mixtures were incubated at 30° C. for 10 min, quenched and filtered, and radioactivity in the acid-insoluble material measured by scintillation counting. Experiments were done in triplicate. Inhibitors were assayed by addition of several dilutions of a stock solution of inhibitor (DMSO or water, depending on solubility) before enzyme addition. […] The truncated assay, i.e., exclusion of the competitive substrate dGTP allows for the direct determination of apparent inhibitor constants (Ki) in this assay system.

B.s. pol IIIC = B.s. pol IIIC (Bacillus subtilis, UniProt P13267); assay: biochemical; assay type: biochemical
B.s. pol IIIC, sequence (P13267 whole entry): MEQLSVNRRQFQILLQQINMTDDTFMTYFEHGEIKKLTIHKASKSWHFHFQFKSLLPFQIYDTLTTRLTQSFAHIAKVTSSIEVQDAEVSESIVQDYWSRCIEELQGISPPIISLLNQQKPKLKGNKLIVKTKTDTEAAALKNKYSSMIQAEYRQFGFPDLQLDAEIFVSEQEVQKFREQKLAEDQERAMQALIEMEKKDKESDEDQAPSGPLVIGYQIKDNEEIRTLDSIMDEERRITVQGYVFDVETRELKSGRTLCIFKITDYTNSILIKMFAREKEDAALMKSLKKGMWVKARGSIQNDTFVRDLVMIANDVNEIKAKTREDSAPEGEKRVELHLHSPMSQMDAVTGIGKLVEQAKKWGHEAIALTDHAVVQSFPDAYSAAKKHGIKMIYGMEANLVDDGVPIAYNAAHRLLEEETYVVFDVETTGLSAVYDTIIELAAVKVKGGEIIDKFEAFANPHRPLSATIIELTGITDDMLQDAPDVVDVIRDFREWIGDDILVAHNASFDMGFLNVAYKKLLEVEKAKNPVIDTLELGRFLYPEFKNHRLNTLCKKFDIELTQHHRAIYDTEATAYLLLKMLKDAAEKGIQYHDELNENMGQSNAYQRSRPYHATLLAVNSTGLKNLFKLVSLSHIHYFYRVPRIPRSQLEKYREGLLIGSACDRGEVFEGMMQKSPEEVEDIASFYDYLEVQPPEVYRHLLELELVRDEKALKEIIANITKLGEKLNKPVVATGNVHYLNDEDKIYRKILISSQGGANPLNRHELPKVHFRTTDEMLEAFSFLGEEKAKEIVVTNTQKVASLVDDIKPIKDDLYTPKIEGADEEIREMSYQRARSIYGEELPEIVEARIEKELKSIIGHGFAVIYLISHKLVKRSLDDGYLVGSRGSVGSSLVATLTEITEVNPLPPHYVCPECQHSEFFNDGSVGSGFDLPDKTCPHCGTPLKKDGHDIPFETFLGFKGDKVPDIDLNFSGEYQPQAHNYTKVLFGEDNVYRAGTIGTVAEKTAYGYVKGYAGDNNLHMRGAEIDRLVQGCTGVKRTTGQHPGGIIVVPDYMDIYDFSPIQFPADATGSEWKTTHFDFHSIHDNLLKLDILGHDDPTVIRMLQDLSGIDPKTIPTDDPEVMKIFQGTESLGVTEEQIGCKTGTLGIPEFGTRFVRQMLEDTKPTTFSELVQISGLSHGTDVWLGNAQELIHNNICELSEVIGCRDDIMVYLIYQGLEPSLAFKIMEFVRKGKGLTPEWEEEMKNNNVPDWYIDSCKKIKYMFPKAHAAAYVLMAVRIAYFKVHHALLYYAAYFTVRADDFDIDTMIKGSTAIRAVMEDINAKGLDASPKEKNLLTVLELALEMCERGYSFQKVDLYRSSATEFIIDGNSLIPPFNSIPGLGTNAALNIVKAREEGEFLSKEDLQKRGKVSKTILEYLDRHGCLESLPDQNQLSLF
Description: as §3, §4, §5

B.s. pol IIIE = B.s. pol IIIE (Bacillus subtilis, UniProt O34623); assay: biochemical; assay type: biochemical
B.s. pol IIIE, sequence (O34623 whole entry): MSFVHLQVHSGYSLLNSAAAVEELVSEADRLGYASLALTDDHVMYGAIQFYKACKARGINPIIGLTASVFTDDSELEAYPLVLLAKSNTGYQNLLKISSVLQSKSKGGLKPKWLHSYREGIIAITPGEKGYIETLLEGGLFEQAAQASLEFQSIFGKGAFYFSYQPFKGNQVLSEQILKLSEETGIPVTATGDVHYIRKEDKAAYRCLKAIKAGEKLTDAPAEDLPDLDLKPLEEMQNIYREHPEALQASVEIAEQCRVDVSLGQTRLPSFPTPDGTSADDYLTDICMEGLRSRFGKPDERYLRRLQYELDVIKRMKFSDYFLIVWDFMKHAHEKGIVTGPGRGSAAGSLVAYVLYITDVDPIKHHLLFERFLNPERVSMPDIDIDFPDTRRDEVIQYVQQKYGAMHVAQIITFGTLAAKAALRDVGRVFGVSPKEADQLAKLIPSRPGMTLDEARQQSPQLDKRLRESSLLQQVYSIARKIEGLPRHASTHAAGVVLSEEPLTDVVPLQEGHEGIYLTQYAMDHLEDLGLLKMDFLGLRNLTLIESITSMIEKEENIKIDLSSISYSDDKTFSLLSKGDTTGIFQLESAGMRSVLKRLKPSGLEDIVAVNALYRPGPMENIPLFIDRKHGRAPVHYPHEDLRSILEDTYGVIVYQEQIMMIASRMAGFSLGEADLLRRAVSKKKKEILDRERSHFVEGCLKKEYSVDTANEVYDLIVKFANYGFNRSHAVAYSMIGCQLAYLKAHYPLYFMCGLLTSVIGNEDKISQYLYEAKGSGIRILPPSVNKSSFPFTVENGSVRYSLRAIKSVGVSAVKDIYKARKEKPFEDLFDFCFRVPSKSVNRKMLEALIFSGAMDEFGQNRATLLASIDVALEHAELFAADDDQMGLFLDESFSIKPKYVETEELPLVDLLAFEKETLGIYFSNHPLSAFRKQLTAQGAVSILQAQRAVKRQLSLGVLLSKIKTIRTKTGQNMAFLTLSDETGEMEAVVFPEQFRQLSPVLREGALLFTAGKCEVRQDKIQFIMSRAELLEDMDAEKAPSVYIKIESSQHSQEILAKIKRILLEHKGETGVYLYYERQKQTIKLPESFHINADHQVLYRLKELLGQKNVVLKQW
Description: as §3, §4, §5

Bacillus subtilis = assay: Inhibition of bacterial growth (agar plate MIC), B.s.; assay type: cell-based; conditions: Bacillus subtilis; agar plates, 37° C., 24 hours
Description: as §1, §2

Structure (SMILES) | MIC (MRSA (B42876)) | Papp (in vitro) | MIC (Enterococcus fecium) | MIC (Enterococcus fecalis) | Ki (E.c. pol IIIE) | Ki (B.s. pol IIIC) | Ki (B.s. pol IIIE) | MIC (Bacillus subtilis) | Ki, E.c. pol IIIE (E.c. pol IIIE; truncated assay without dGTP, apparent Ki)
COCCCCCn1cnc2cc(NCc3ccc(Cl)c(Cl)c3)[nH]c(=O)c21 [Compound 3, 2-(3,4-Dichlorobenzylamino)-6-oxo-7-(5-methoxypentyl)-3-deazapurine] | 2.5 µg/mL (≈ 6.11 µM) | 13.8 ×10⁻⁶ cm/s | 1.25 µg/mL (≈ 3.05 µM) | 5 µg/mL (≈ 12.2 µM) | 81 µM | 160 nM | 0.42 µM | – | –
CCc1cc(Nc2cc3ncn(CCCCCOC)c3c(=O)[nH]2)ccc1C [Compound 17, 2-(3-Ethyl-4-methylphenylamino)-6-oxo-7-(5-methoxypentyl)-3-deazapurine] | 2.5 µg/mL (≈ 6.78 µM) | 39.6 ×10⁻⁶ cm/s | 2.5 µg/mL (≈ 6.78 µM) | > 80 µg/mL | – | 690 nM | 490 µM | 1.25 µg/mL (≈ 3.39 µM) | inact

Source: US6926763B2, “Purine and isosteric antibacterial compounds” (GLSynthesis, Inc., priority 2002, dated 2005)
